Among the data in US12473293B2, “Pharmacologically active heterocyclic-substituted pyrazolo[1,5-a]pyrimidine derivatives” (Richter Gedeon Nyrt., priority 2020, dated 2025) are EC50 values, retold here.

pEC50: −log10 of the molar value. Where a name gives a salt, the structure may show the parent alone.

For this experiment, the target named is T1, GABAB receptor (Rattus norvegicus, UniProt O88871+Q9Z0U4).
T1 construct: from tissue; host or cells: rat brain cortex membranes
T1 sequence (O88871 41-940): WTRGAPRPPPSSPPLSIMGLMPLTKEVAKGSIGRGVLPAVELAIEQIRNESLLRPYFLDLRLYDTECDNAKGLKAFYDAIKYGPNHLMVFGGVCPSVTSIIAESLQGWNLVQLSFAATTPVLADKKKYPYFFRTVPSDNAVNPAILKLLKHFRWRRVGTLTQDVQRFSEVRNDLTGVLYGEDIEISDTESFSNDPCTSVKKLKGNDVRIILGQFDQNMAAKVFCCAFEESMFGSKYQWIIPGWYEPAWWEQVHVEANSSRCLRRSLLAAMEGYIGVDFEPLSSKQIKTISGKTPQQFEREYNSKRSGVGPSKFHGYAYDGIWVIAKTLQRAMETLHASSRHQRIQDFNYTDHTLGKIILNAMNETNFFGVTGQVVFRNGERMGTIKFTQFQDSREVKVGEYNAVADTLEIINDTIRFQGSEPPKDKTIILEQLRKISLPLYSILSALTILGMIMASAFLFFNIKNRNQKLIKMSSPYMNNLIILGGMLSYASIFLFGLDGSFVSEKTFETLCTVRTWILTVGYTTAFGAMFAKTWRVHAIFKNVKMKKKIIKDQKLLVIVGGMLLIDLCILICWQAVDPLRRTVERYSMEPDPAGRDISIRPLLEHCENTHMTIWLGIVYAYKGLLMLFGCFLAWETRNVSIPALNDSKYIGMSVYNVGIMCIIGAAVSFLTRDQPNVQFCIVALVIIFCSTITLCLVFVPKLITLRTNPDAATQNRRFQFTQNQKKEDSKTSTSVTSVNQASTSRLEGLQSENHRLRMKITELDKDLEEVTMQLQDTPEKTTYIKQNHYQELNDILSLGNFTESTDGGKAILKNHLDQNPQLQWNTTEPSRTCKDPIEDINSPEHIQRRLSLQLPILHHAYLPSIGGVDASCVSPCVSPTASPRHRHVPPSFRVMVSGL
T1 sequence (Q9Z0U4 17-960 limits assumed): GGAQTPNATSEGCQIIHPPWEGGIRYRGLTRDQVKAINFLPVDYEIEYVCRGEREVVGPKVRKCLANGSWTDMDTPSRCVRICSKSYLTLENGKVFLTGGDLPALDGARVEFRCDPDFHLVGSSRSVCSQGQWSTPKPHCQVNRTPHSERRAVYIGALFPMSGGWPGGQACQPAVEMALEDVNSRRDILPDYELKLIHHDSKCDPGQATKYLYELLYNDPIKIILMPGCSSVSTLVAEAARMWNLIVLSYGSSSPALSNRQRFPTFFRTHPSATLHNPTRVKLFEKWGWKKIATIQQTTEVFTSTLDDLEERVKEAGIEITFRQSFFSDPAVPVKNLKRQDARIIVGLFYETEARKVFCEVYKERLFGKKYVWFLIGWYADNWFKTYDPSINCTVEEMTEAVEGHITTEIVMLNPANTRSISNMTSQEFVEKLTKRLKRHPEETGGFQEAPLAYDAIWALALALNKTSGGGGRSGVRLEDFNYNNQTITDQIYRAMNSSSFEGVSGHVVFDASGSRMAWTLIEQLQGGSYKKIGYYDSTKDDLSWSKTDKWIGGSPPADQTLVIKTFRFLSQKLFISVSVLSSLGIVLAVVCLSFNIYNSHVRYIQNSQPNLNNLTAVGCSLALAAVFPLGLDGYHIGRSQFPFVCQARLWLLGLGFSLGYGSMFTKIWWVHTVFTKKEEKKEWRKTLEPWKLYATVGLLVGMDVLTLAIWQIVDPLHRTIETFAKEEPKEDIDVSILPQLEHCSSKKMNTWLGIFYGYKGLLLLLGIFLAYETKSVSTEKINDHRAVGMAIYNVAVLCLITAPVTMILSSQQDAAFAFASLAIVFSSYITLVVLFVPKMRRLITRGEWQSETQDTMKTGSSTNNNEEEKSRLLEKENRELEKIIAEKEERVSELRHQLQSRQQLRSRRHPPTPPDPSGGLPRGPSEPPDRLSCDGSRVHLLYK
The experiment can be described thus: In vitro [35S]GTPγS binding assay in rat cortical membranes. Format: biochemical. Particulars: PAM EC50, [35S]GTPγS binding, read-out: In vitro PAM potency. The protocol: In Vitro [^35S]GTPγS Binding Assay in Rat Cortical Membranes
Cortices of freshly harvested rat brains were dissected on an ice-cold surface and homogenized by a glass Dounce homogeniser immediately in ice-cold buffer containing 50 mM Tris, 5 mM MgCl2 and 1 mM EDTA (pH=7.6). Tissue homogenates were centrifuged at 40000 g for 15 min at 4° C. Membrane pellets were resuspended in the same buffer and membranes were incubated for 10 min at 30° C. in a shaking water bath to eliminate endogenous GABA. Homogenates were centrifuged again under the same conditions. The final pellets were resuspended in ice-cold buffer (pH=7.6) containing 50 mM Tris, 100 mM NaCl, 7 mM MgCl2, 1 mM EDTA and 1 mM dithiotreithol (DTT) to yield a concentration of 20 mg tissue weight/ml and frozen at −70° C. until use. The assay was done in a buffer containing 50 mM Tris (pH=7.4), 100 mM NaCl, 7 mM MgCl2, 1 mM EDTA and 1 mM DTT. Each assay tube contained 150 μL GDP (in a final concentration of 50 μM), 100 μL ligand and 125 μL of the membrane suspension ([…]). The assay tubes were preincubated for 10 min at 30° C. to assure equilibrium. Nonspecific binding was determined in the presence of 10 μM GTPγS; basal binding was determined in the presence of buffer only. After addition of […] [^35S]GTPγS in a volume of 25 μL to the tubes, membranes were incubated for an additional 60 min at 30° C. The assay was terminated by rapid filtration through Packard UniFilter GF/B using a Packard harvester and washed four times with 1 ml ice-cold buffer. After drying the filters at 40° C. for 1 h, 40 μL Microscint (Packard) was added to the filters and radioactivity of the filters was determined by a TopCount NXT (PerkinElmer, Waltham, MA; Alper and Nelson, Eur. J. Pharmacol. 1998, 343, 303-312; Rinken et al, Biochem. Pharmacol. 1999, 57, 155-162). Data thus gathered were used to determine PAM EC50 values for each compound as primary in vitro activity end point.
In Table 1 compounds of this invention measured in the [^35S]GTPγS binding assay are listed.
On the technique in general: GTPγS is a poorly hydrolysed GTP analogue; its binding reports G protein activation.
For `Cc1cc(C2(C)CN(C=O)CC(F)(F)C2)n2nc([C@H]3CC[C@H](C(F)(F)F)CC3)cc2n1` (stereo partly shown) [Example 78], the pEC50 was 6.00 to 7.00.

`CCc1c(C)nc2cc([C@H]3CC[C@H](C(F)(F)F)CC3)nn2c1[C@]1(C)CCCN(C(C)=O)C1` [Example 34]: the pEC50 is greater than 7.00.

Regarding `COC(=O)N1CC[C@H](C)[C@@H](c2cc(C)nc3c(F)c([C@H]4CC[C@H](C(F)(F)F)CC4)nn23)C1` [Example 129], the pEC50 was 6.00 to 7.00.

For the compound `Cc1cc([C@H]2C[C@@H](C)CN(C=O)C2)n2nc([C@H]3CC[C@H](C(F)(F)F)CC3)cc2n1` (racemic) [Example 104], the pEC50 is 6.00 to 7.00.

Regarding `COC(=O)N1CCO[C@H](c2cc(C)nc3c(F)c([C@H]4CC[C@H](C(F)(F)F)CC4)nn23)C1` [Example 130], the pEC50 was 6.00 to 7.00.

`Cc1cc(C2CN(C=O)CCC2(C)C)n2nc([C@H]3CC[C@H](C(F)(F)F)CC3)cc2n1` (stereo partly shown) [Example 59]: the pEC50 was 6.00 to 7.00.

As to `Cc1nc2cc([C@H]3CC[C@H](C(F)(F)F)CC3)nn2c(C2CN(C(=O)C3(C)COC3)CC(F)(F)C2)c1C` (stereo partly shown) [Example 79], the pEC50 was 6.00 to 7.00.

Consider `Cc1cc([C@H]2CN(S(C)(=O)=O)CCO2)n2nc([C@H]3CC[C@H](C(F)(F)F)CC3)cc2n1` [Example 119], for which the pEC50 was 6.00 to 7.00.

For `Cc1cc([C@H]2CN(C(=O)c3cscn3)CCO2)n2nc([C@H]3CC[C@H](C(F)(F)F)CC3)cc2n1` [Example 121], the pEC50 is 6.00 to 7.00.

On to `COC(=O)N1CCOC(C)(c2cc(C)nc3cc([C@H]4CC[C@H](C(F)(F)F)CC4)nn23)C1` (stereo partly shown) [Example 73], for which the pEC50 was 5.00 to 6.00.

With `Cc1cc([C@H]2CN(C(=O)c3cncs3)CCO2)n2nc([C@H]3CC[C@H](C(F)(F)F)CC3)cc2n1` [Example 118], the pEC50 is 6.00 to 7.00.

On to `COC(=O)N1CC(c2c(C)c(C)nc3cc([C@H]4CC[C@H](C(F)(F)F)CC4)nn23)CC(F)(F)C1` (stereo partly shown) [Example 74], for which the pEC50 is 6.00 to 7.00.

Turning to `Cc1cc([C@]2(C)CCCN(S(N)(=O)=O)C2)n2nc([C@H]3CC[C@H](C(F)(F)F)CC3)cc2n1` [Example 71], the pEC50 is 5.00 to 6.00.

For the compound `Cc1cc([C@@H]2CN(C=O)CCO2)n2nc([C@H]3CC[C@H](C(F)(F)F)CC3)cc2n1` [Example 94], the pEC50 is 5.00 to 6.00.

Turning to `Cc1nc2cc([C@H]3CC[C@H](C(F)(F)F)CC3)nn2c([C@]2(C)CCCN(CC(N)=O)C2)c1C` [Example 49], the pEC50 is 5.00 to 6.00.

In the case of `CC(=O)N1CCC[C@](C)(c2cc(C)nc3cc([C@H]4CC[C@H](C(F)(F)F)CC4)nn23)C1` [Example 36], the pEC50 was 5.00 to 6.00.

Regarding `CC(=O)N1CCOC(c2c(C)c(C)nc3cc([C@H]4CC[C@H](C(F)(F)F)CC4)nn23)C1` (stereo partly shown) [Example 70], the pEC50 is 6.00 to 7.00.

Take `Cc1cc([C@@H]2CN(C(=O)CN)CC[C@H]2C)n2nc([C@H]3CC[C@H](C(F)(F)F)CC3)cc2n1` [Example 53]: the pEC50 was 5.00 to 6.00.

Consider `Cc1nc2cc([C@H]3CC[C@H](C(F)(F)F)CC3)nn2c([C@]2(C)CCCN(CC#N)C2)c1C` [Example 18, 2-[(3R)-3-{5,6-dimethyl-2-[trans-4-(trifluoromethyl)cyclohexyl]pyrazolo[1,5-a]pyrimidin-7-yl}-3-methylpiperidin-1-yl]acetonitrile hydrochloride], for which the pEC50 is 6.00 to 7.00.

For the compound `Cc1cc([C@H]2CN(C(=O)c3cnco3)CCO2)n2nc([C@H]3CC[C@H](C(F)(F)F)CC3)cc2n1` [Example 114], the pEC50 is 6.00 to 7.00.

In the case of `COC(=O)N1C[C@@H](c2cc(C)nc3cc([C@H]4CC[C@H](C(F)(F)F)CC4)nn23)OCC1(C)C` (single isomer, unassigned) [Example 12], the pEC50 is 5.00 to 6.00.

In the case of `Cc1nc2cc([C@H]3CC[C@H](C(F)(F)F)CC3)nn2c([C@@H]2CCCN(C(=O)[C@@H](N)CO)C2)c1C` [Example 21, (2S)-2-amino-1-[(3R)-3-{5,6-dimethyl-2-[trans-4-(trifluoromethyl)cyclohexyl]pyrazolo[1,5-a]pyrimidin-7-yl}piperidin-1-yl]-3-hydroxypropan-1-one], the pEC50 was 5.00 to 6.00.

For `CC(=O)N1CCO[C@@H](c2c(C)c(C)nc3cc([C@H]4CC[C@H](C(F)(F)F)CC4)nn23)C1` [Example 88], the pEC50 is 6.00 to 7.00.

Regarding `Cc1cc([C@@H]2CN(S(C)(=O)=O)CC[C@@H]2C)n2nc([C@H]3CC[C@H](C(F)(F)F)CC3)cc2n1` (racemic) [Example 85], the pEC50 is 6.00 to 7.00.

In the case of `CC(=O)N1CCC[C@](C)(c2c(C)c(C)nc3cc([C@H]4CC[C@H](C(F)(F)F)CC4)nn23)C1` [Example 37], the pEC50 is 6.00 to 7.00.

With `Cc1cc([C@H]2CN(C=O)[C@@H](C)CO2)n2nc([C@H]3CC[C@H](C(F)(F)F)CC3)cc2n1` [Example 103], the pEC50 was 6.00 to 7.00.

As to `COC(=O)N1C[C@@H](c2cc(C)nc3cc([C@H]4CC[C@H](C(F)(F)F)CC4)nn23)O[C@@H](C)C1` [Example 124], the pEC50 is no more than 5.00.

Regarding `CCc1c(C)nc2cc([C@H]3CC[C@H](C(F)(F)F)CC3)nn2c1[C@]1(C)CCCN(S(C)(=O)=O)C1` [Example 44], the pEC50 is greater than 7.00.

For the compound `CCC1CCN(C=O)CC1c1cc(C)nc2cc([C@H]3CC[C@H](C(F)(F)F)CC3)nn12` (stereo partly shown) [Example 72], the pEC50 is 6.00 to 7.00.

For `COC(=O)N1CC[C@H](C)[C@H](c2cc(C)nc3cc([C@H]4CC[C@H](C(F)(F)F)CC4)nn23)C1` (single isomer, unassigned) [Example 6], the pEC50 was 6.00 to 7.00.

As for `Cc1cc([C@H]2CN(C(=O)c3nnc(C)o3)CCO2)n2nc([C@H]3CC[C@H](C(F)(F)F)CC3)cc2n1` [Example 123], the pEC50 is 6.00 to 7.00.

As for `COC(=O)N1C[C@@H](c2cc(C)nc3cc([C@H]4CC[C@H](C(F)(F)F)CC4)nn23)OC[C@@H]1C(C)C` [Example 122], the pEC50 was 6.00 to 7.00.

As to `COC(=O)N1CCC[C@H](c2cc(C)nc3cc([C@H]4CC[C@H](C(F)(F)F)CC4)nn23)[C@@H]1C` [Example 97], the pEC50 is 6.00 to 7.00.

`Cc1nc2cc([C@H]3CC[C@H](C(F)(F)F)CC3)nn2c([C@@H]2CN(C(=N)N)CC[C@@H]2C)c1C` (racemic) [Example 57]: the pEC50 was 6.00 to 7.00.

Take `Cc1cc([C@H]2CCCOC2)n2nc([C@H]3CC[C@H](C(F)(F)F)CC3)cc2n1` (single isomer, unassigned) [Example 28]: the pEC50 is greater than 7.00.

Consider `Cc1cc([C@@H]2CN(C=O)CC[C@@H]2C)n2nc([C@H]3CC[C@H](C(F)(F)F)CC3)cc2n1` (racemic) [Example 160], for which the pEC50 was 6.00 to 7.00.

Take `COC(=O)N1CC[C@H](C)[C@@H](c2cc(C)nc3cc([C@H]4CC[C@H](C(F)(F)F)CC4)nn23)C1` (single isomer, unassigned) [Example 4]: the pEC50 is 6.00 to 7.00.

Consider `CC(=O)N1CCCC(c2c(C(C)C)c(C)nc3cc([C@H]4CC[C@H](C(F)(F)F)CC4)nn23)C1` (stereo partly shown) [Example 40], for which the pEC50 is greater than 7.00.

With `Cc1cc([C@@H]2CCCS(=O)(=O)C2)n2nc([C@H]3CC[C@H](C(F)(F)F)CC3)cc2n1` [Example 27, 3-{5-methyl-2-[trans-4-(trifluoromethyl)cyclohexyl]pyrazolo[1,5-a]pyrimidin-7-yl}-1λ^6-thiane-1,1-dione], the pEC50 was 6.00 to 7.00.

On to `Cc1cc([C@H]2CN(S(N)(=O)=O)CCO2)n2nc([C@H]3CC[C@H](C(F)(F)F)CC3)cc2n1` [Example 25, (2R)-2-{5-methyl-2-[trans-4-(trifluoromethyl)cyclohexyl]pyrazolo[1,5-a]pyrimidin-7-yl}morpholine-4-sulfonamide], for which the pEC50 is greater than 7.00.

Take `Cc1cc([C@@H]2CCCN(C(=N)N)C2)n2nc([C@H]3CC[C@H](C(F)(F)F)CC3)cc2n1` [Example 23, (3R)-3-{5-methyl-2-[trans-4-(trifluoromethyl)cyclohexyl]pyrazolo[1,5-a]pyrimidin-7-yl}piperidine-1-carboximidamide hydrochloride]: the pEC50 is 6.00 to 7.00.

For `COC(=O)N1C[C@@H](c2cc(C)nc3cc([C@H]4CC[C@H](C(F)(F)F)CC4)nn23)OC[C@H]1C` [Example 110], the pEC50 is 5.00 to 6.00.

Turning to `CC(=O)N1CCC(C)C(c2cc(C)nc3c(F)c(C4CCC(C(F)(F)F)CC4)nn23)C1` (single isomer, unassigned) [Example 2], the pEC50 is 6.00 to 7.00.

As to `COC(=O)N1C[C@H](c2cc(C)nc3cc([C@H]4CC[C@H](C(F)(F)F)CC4)nn23)OC[C@H]1C` [Example 106], the pEC50 is 6.00 to 7.00.

Turning to `CCc1c(C)nc2cc([C@H]3CC[C@H](C(F)(F)F)CC3)nn2c1[C@@H]1CCCN(C(=O)OC)C1` [Example 51], the pEC50 is 6.00 to 7.00.

Take `Cc1cc([C@]2(C)CCCN(C=O)C2)n2nc([C@H]3CC[C@H](C(F)(F)F)CC3)cc2n1` [Example 69]: the pEC50 is 6.00 to 7.00.
